IC50 data for 17 compounds are collected here from patent publication US20260138976A1 (Hoffmann-La Roche Inc., priority 2022, published 2026).

pIC50: −log10 of the molar value. Where only a bound is given, the exact number is not on record here.

The target in assay [1] is T1, DGKζ (hDGKzeta(1-928)-N-His) (Homo sapiens, UniProt Q13574).
T1 construct: hDGKzeta(1-928)-N-His; His (N); made in house; host or cells: Sf21 insect cells (baculovirus)
The experiment in a line: In vitro DGK inhibition assay, DGKzeta ADP Glo (in house). As to conditions: 2 nM DGKζ, 50 μM ATP, 125 uM DLG in liposomes, 1 hour reaction. The format is biochemical. The method in brief: (§1)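 ADP-Glo luminescence measured ADP formed over 1 h by Sf21-expressed full-length human enzymes: DGKα at 4 nM with 25 µM ATP, DGKζ at 2 nM with 50 µM ATP, both on 125 µM DLG in PS/PC liposomes. Dose–response used 11 threefold dilutions at 2% final DMSO.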
A general note: ADP-Glo turns the ADP formed in a reaction into a luminescent signal.

The target of assay [2] is T2, DGKα (hDGKalpha(1-735)-N-His) (Homo sapiens, UniProt P23743).
T2 construct: hDGKalpha(1-735)-N-His; His (N); made in house; host or cells: Sf21 insect cells (baculovirus)
T2 sequence (P23743 whole entry): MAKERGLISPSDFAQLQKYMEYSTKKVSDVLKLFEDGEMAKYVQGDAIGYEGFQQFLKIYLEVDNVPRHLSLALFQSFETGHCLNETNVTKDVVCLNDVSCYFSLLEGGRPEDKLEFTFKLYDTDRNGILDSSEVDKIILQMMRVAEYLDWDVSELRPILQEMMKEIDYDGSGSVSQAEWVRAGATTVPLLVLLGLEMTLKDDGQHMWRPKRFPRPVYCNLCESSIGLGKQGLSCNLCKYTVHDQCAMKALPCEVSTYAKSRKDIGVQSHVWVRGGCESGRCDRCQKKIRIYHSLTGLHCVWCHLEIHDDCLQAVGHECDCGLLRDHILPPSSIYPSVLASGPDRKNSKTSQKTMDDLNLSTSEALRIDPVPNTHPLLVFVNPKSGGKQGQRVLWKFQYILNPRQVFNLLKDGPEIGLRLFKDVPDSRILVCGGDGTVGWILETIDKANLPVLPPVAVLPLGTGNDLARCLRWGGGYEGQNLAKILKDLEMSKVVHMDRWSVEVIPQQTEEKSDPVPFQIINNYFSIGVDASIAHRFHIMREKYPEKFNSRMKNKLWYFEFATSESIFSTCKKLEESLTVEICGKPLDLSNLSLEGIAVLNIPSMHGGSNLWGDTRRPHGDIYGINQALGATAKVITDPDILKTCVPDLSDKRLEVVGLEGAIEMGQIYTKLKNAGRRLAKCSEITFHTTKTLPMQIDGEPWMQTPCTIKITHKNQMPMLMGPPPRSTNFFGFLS
The experiment in a line: In vitro DGK inhibition assay, DGKalpha ADP Glo (in house). It is filed as biochemical. As to conditions: 4 nM DGKα, 25 μM ATP, 125 uM DLG in liposomes, 1 hour reaction. In short, it runs like this:
as §1

T1 sequence (Q13574 whole entry): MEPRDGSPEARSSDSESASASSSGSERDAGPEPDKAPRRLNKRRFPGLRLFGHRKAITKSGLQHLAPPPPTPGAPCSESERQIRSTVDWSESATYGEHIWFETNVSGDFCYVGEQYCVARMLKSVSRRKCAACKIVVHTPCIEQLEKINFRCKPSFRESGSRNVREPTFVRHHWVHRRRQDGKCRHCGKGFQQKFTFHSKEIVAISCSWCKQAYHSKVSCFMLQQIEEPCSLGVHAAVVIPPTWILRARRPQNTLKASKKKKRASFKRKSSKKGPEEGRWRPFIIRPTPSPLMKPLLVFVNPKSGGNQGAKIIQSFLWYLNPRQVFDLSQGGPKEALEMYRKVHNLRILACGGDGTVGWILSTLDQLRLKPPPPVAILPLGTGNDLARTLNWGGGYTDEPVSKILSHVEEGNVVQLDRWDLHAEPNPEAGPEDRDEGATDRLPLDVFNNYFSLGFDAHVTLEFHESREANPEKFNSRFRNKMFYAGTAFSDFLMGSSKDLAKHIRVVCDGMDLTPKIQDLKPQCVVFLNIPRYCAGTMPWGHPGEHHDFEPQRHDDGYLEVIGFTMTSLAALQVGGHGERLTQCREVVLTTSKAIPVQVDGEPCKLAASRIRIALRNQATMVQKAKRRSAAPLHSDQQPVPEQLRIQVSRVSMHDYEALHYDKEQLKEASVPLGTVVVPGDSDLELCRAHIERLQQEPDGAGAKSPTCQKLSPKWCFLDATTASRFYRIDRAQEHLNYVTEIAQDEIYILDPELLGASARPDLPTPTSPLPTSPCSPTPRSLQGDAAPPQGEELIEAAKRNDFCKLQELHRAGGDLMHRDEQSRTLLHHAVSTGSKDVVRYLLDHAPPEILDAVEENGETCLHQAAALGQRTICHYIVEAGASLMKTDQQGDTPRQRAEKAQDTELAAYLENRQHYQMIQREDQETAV

In general, pIC50 refers to the negative decadic logarithm of the IC50, by convention in mol/L. Read a low pIC50 as a high IC50. `Cn1nc(C(F)(F)F)cc1-c1ccc(CN2C(=O)[C@@H](N)CS(=O)(=O)c3ccc(-c4nnc(C(C)(C)C#N)o4)cc32)cc1` [Example 107, 2-[5-[(3R)-3-amino-5-[[4-[2-methyl-5-(trifluoromethyl)pyrazol-3-yl]phenyl]methyl]-1,1,4-trioxo-2,3-dihydro-1λ^6,5-benzothiazepin-7-yl]-1,3,4-oxadiazol-2-yl]-2-methyl-propanenitrile]: the negative logarithm of the IC50 (pIC50) in assay [1] was 6.07; in assay [2] it was 5.89.
In the case of `CC(C)(C#N)c1nnc(-c2ccc3c(c2)N(Cc2ccc(-c4ccc(OC(F)F)cn4)cc2)C(=O)[C@@H](N)CS3(=O)=O)o1` [Example 108, 2-[5-[(3R)-3-amino-5-[[4-[5-(difluoromethoxy)-2-pyridyl]phenyl]methyl]-1,1,4-trioxo-2,3-dihydro-1λ^6,5-benzothiazepin-7-yl]-1,3,4-oxadiazol-2-yl]-2-methyl-propanenitrile], the figures for the negative-log IC50 (pIC50) in assay [1] and in assay [2] were 6.03 and 5.86, respectively.
For `CC(F)(F)c1ccc(-c2ccc(CN3C(=O)[C@@H](N)CS(=O)(=O)c4ccc(-c5nnc(C(C)(C)C#N)o5)cc43)cc2)nc1` [Example 109, 2-[5-[(3R)-3-amino-5-[[4-[5-(1,1-difluoroethyl)-2-pyridyl]phenyl]methyl]-1,1,4-trioxo-2,3-dihydro-1λ^6,5-benzothiazepin-7-yl]-1,3,4-oxadiazol-2-yl]-2-methyl-propanenitrile], the pIC50 is 6.06 in assay [1] and 5.68 in assay [2].
Consider `CC(C)(C#N)c1nnc(-c2ccc3c(c2)N(Cc2ccc(-c4cc(OC(F)F)ccn4)cc2)C(=O)[C@@H](N)CS3(=O)=O)o1` [Example 110, 2-[5-[(3R)-3-amino-5-[[4-[4-(difluoromethoxy)-2-pyridyl]phenyl]methyl]-1,1,4-trioxo-2,3-dihydro-1λ^6,5-benzothiazepin-7-yl]-1,3,4-oxadiazol-2-yl]-2-methyl-propanenitrile], for which the negative logarithm of the IC50 (pIC50) is 6.29 in assay [1] and less than 4.22 in assay [2].
The matching figures for `CC(C)(C#N)c1nnc(-c2ccc3c(c2)N(Cc2ccc(-c4ccnc(C(F)(F)F)c4)cc2)C(=O)[C@@H](N)CS3(=O)=O)o1` [Example 111, 2-[5-[(3R)-3-amino-1,1,4-trioxo-5-[[4-[2-(trifluoromethyl)-4-pyridyl]phenyl]methyl]-2,3-dihydro-1λ^6,5-benzothiazepin-7-yl]-1,3,4-oxadiazol-2-yl]-2-methyl-propanenitrile]: 5.95 and less than 4.20.
On the same counts, the results for `CC(C)(C#N)c1nnc(-c2ccc3c(c2)N(Cc2ccc(-c4cnc(OC(F)(F)F)cn4)cc2)C(=O)[C@@H](N)CS3(=O)=O)o1` [Example 112] are 6.33 and 5.76.
Turning to `CC(C)(C#N)c1nnc(-c2ccc3c(c2)N(Cc2ccc(-c4ccc(C(F)(F)F)nc4)cc2)C(=O)[C@@H](N)CS3(=O)=O)o1` [Example 113, 2-[5-[(3R)-3-amino-1,1,4-trioxo-5-[[4-[6-(trifluoromethyl)-3-pyridyl]phenyl]methyl]-2,3-dihydro-1λ^6,5-benzothiazepin-7-yl]-1,3,4-oxadiazol-2-yl]-2-methyl-propanenitrile], the pIC50 is 5.95 in assay [1] and less than 4.20 in assay [2].
On the same counts, the results for `Cc1nc(-c2ccc(CN3C(=O)[C@@H](N)CS(=O)(=O)c4ccc(-c5nnc(C(C)(C)C#N)o5)cc43)cc2)ccc1C(F)(F)F` [Example 114] are 5.43 and less than 4.22.
On the same counts, the results for `CC(C)(C#N)c1nnc(-c2ccc3c(c2)N(Cc2ccc(-c4cnn(C(F)(F)F)c4)cc2)C(=O)[C@@H](N)CS3(=O)=O)o1` [Example 115, 2-[5-[(3R)-3-amino-1,1,4-trioxo-5-[[4-[1-(trifluoromethyl)pyrazol-4-yl]phenyl]methyl]-2,3-dihydro-1λ^6,5-benzothiazepin-7-yl]-1,3,4-oxadiazol-2-yl]-2-methyl-propanenitrile] are 6.10 and 6.23.
The matching figures for `CC(C)(C#N)c1nnc(-c2ccc3c(c2)N(Cc2ccc(-c4cc(C(F)(F)F)ccn4)cc2)C(=O)[C@@H](N)CS3(=O)=O)o1` [Example 116, 2-[5-[(3R)-3-amino-1,1,4-trioxo-5-[[4-[4-(trifluoromethyl)-2-pyridyl]phenyl]methyl]-2,3-dihydro-1λ^6,5-benzothiazepin-7-yl]-1,3,4-oxadiazol-2-yl]-2-methyl-propanenitrile]: 6.04 and less than 4.20.
For the compound `CC(C)(C#N)c1nnc(-c2ccc3c(c2)N(Cc2ccc(-c4ncc(OC(F)(F)F)cn4)cc2)C(=O)[C@@H](N)CS3(=O)=O)o1` [Example 117], the results for the negative-log IC50 (pIC50) in assay [1] and in assay [2] were 6.00 and 5.94, respectively.
The matching figures for `CC(C)(C#N)c1nnc(-c2ccc3c(c2)N(Cc2ccc(-c4ccc(C5CC5)cn4)cc2)C(=O)[C@@H](N)CS3(=O)=O)o1` [Example 118, 2-[5-[(3R)-3-amino-5-[[4-(5-cyclopropyl-2-pyridyl)phenyl]methyl]-1,1,4-trioxo-2,3-dihydro-1λ^6,5-benzothiazepin-7-yl]-1,3,4-oxadiazol-2-yl]-2-methyl-propanenitrile]: 6.09 and 4.79.
For the compound `CC(C)(C#N)c1nnc(-c2ccc3c(c2)N(Cc2ccc(-c4ccc(OC(F)(F)F)cc4)nc2)C(=O)[C@@H](N)CS3(=O)=O)o1` [Example 119, 2-[5-[(3R)-3-amino-1,1,4-trioxo-5-[[6-[4-(trifluoromethoxy)phenyl]-3-pyridyl]methyl]-2,3-dihydro-1λ^6,5-benzothiazepin-7-yl]-1,3,4-oxadiazol-2-yl]-2-methyl-propanenitrile], the pIC50 in assay [1] is 5.79; in assay [2], 5.46.
Consider `CC(C)(C#N)c1nnc(-c2ccc3c(c2)N(Cc2ccc(-n4nnc(C(F)(F)F)n4)cc2)C(=O)[C@@H](N)CS3(=O)=O)o1` [Example 120, 2-[5-[(3R)-3-amino-1,1,4-trioxo-5-[[4-[5-(trifluoromethyl)tetrazol-2-yl]phenyl]methyl]-2,3-dihydro-1λ^6,5-benzothiazepin-7-yl]-1,3,4-oxadiazol-2-yl]-2-methyl-propanenitrile], for which the negative-log IC50 (pIC50) in assay [1] is 5.70; in assay [2], 4.87.
On the same counts, the results for `CC(C)(C#N)c1nnc(-c2ccc3c(c2)N(Cc2ccc(-c4nc(C(F)(F)F)co4)cc2)C(=O)[C@@H](N)CS3(=O)=O)o1` [Example 123, 2-[5-[(3R)-3-amino-1,1,4-trioxo-5-[[4-[4-(trifluoromethyl)oxazol-2-yl]phenyl]methyl]-2,3-dihydro-1λ^6,5-benzothiazepin-7-yl]-1,3,4-oxadiazol-2-yl]-2-methyl-propanenitrile] are 6.05 and 5.73.
Turning to `COc1ccc(-c2ccc(CN3C(=O)[C@@H](N)CS(=O)(=O)c4ccc(-c5nnc(C(C)(C)C#N)o5)cc43)cc2)nc1` [Example 125], the pIC50 in assay [1] is 6.03; in assay [2], 5.45.
`CC(C)(C#N)c1nnc(-c2ccc3c(c2)N(Cc2ccc(-c4cc(OC(F)(F)F)ccn4)cc2)C(=O)[C@@H](N)CS3(=O)=O)o1` [Example 126, 2-[5-[(3R)-3-amino-1,1,4-trioxo-5-[[4-[4-(trifluoromethoxy)-2-pyridyl]phenyl]methyl]-2,3-dihydro-1λ^6,5-benzothiazepin-7-yl]-1,3,4-oxadiazol-2-yl]-2-methyl-propanenitrile]: the negative-log IC50 (pIC50) in assay [1] is 6.27; in assay [2] it was 5.36.
